Where a name gives a salt, the structure may show the parent alone. Read-outs that look alike come from different tables or passages of the source.
Tests used:
[1] = tested on: SARS-CoV-2-ΔOrf7a-NLuc virus; test: microbe, parasite or virus in culture; type: cell-based
[2] = tested on: recombinant NLuc; type: biochemical
[3] = recombinant NLuc activity relative to DMSO
[4] = recombinant NLuc, first read column
[5] = recombinant NLuc, fourth read column
[6] = recombinant NLuc, third read column

Row | Compound | % activity in Vero 100PFU screen [1] | Relative Recombinant NLUC [2, 3] | Reads Counts per second (read 1) [2, 4] | Reads Counts per second (read 4) [2, 5] | Reads Counts per second (read 3) [2, 6] | Reads Counts per second (read 2) ([2]; recombinant NLuc) | Reads Counts per second (read 1) [2] | Reads Counts per second (read 3) [2] | Reads Counts per second (read 4) [2] | Relative Recombinant NLUC [2] | activity at 10 µM ([1]; Severe acute respiratory syndrome coronavirus 2, Vero, 72 h, […], 1 = untreated, 0 = total inhibition, read-out: Mean relative luminescence (n=4))
1 | COc1ccc2c(c1OC)C(=O)O[C@@H]2[C@H]1c2c(cc3c(c2OC)OCO3)CCN1C [Noscapine HCl] | 213% | 0.9502 | 358232 Counts per second | 354994 Counts per second | 362883 Counts per second |  |  |  |  |  | 
2 | N#CC[C@H](C1CCCC1)n1cc(-c2ncnc3[nH]ccc23)cn1 [Ruxolitinib (INCB018424), Ruxolitinib] | 169% | 0.8381 | 314540 Counts per second | 316727 Counts per second | 317488 Counts per second |  |  |  |  |  | 
3 | (+)-Catechin hydrate | 160% | 0.9621 | 362209 Counts per second | 367703 Counts per second | 366108 Counts per second | 357899 Counts per second |  |  |  |  | 
4 | C[C@H]1CN(C[C@H](Cc2ccccc2)C(=O)NCC(=O)O)CC[C@@]1(C)c1cccc(O)c1 [Alvimopan] | 169% | 0.9202 | 338215 Counts per second | 352328 Counts per second | 350082 Counts per second | 350063 Counts per second |  |  |  |  | 
5 | O=C(O)[C@H]1O[C@@H](Oc2cc3oc(-c4ccccc4)cc(=O)c3c(O)c2O)[C@H](O)[C@@H](O)[C@@H]1O [Baicalin] | 164% | 0.9439 | 353023 Counts per second | 357276 Counts per second | 357158 Counts per second | 358945 Counts per second |  |  |  |  | 
6 | O=C([O-])CC(O)(CC(=O)[O-])C(=O)[O-].[Li+].[Li+].[Li+] [Lithium Citrate] | 205% | 0.9217 | 343238 Counts per second | 343490 Counts per second | 350985 Counts per second |  |  |  |  |  | 
7 | COc1ccccc1OCC(O)CN1CCN(CC(=O)Nc2c(C)cccc2C)CC1 (stereo not shown) [Ranolazine] | 167% | 0.9679 | 359507 Counts per second | 367791 Counts per second | 367539 Counts per second |  |  |  |  |  | 
8 | O=c1c(-c2ccc(O)cc2)coc2cc(O)ccc12 [Daidzein] | 161% | 0.9154 | 339091 Counts per second | 346126 Counts per second | 350216 Counts per second |  |  |  |  |  | 
9 | N[C@@H](Cc1ccc(O)c(O)c1)C(=O)O [Levodopa] | 233% | 0.839 | 304150 Counts per second | 316577 Counts per second | 322065 Counts per second |  |  |  |  |  | 
10 | CN(C(=O)CN(CCO)CC(=O)N(C)C(C)(C)Cc1ccccc1)C(C)(C)Cc1ccccc1 [Oxethazaine] | 167% | 0.8736 | 330534 Counts per second | 321724 Counts per second | 331517 Counts per second |  |  |  |  |  | 
11 | O=C(O)/C=C/c1ccc(O)c(O)c1 [Caffeic acid] | 173% | 1.054 | 390077 Counts per second | 403178 Counts per second | 399891 Counts per second |  |  |  |  |  | 
12 | C[C@](N)(Cc1ccc(O)c(O)c1)C(=O)O [Methyldopa] | 175% | 0.9666 | 361429 Counts per second | 367357 Counts per second | 364798 Counts per second |  |  |  |  |  | 
13 | CCS(=O)(=O)N1CC(CC#N)(n2cc(-c3ncnc4[nH]ccc34)cn2)C1 [Baricitinib phosphate] | 199% | 0.9095 | 337511 Counts per second | 349331 Counts per second | 346435 Counts per second | 341167 Counts per second |  |  |  |  | 
14 | O=S(=O)(O)c1cc(O)ccc1O [Ethamsylate] | 167% | 1.029 | 388357 Counts per second | 386776 Counts per second | 391647 Counts per second |  |  |  |  |  | 
15 | CC[C@@H]1/C=C(\C)C[C@H](C)C[C@H](OC)[C@H]2O[C@@](O)(C(=O)C(=O)N3CCCC[C@H]3C(=O)O[C@H](/C(C)=C/[C@@H]3CC[C@@H](O)[C@H](OC)C3)[C@H](C)[C@@H](O)CC1=O)[C@H](C)C[C@@H]2OC [Ascomycin(FK 520), Ascomycin] | 171% | 0.8402 | 312887 Counts per second | 314498 Counts per second | 316950 Counts per second | 325360 Counts per second |  |  |  |  | 
16 | O=C(O)COCCN1CCN(C(c2ccccc2)c2ccc(Cl)cc2)CC1 (stereo not shown) [Cetirizine] | 161% | 0.4486 | 170134 Counts per second | 171706 Counts per second | 168670 Counts per second |  |  |  |  |  | 
17 | C[N+]1(C)CCCC(OC(=O)C(O)(c2ccccc2)c2ccccc2)C1 (stereo not shown) [Mepenzolate Bromide] | 175% |  |  |  |  |  | 330221 Counts per second | 339233 Counts per second | 336213 Counts per second | 0.8896 | 
18 | CC(C)c1cc(C(=O)N2Cc3ccc(CN4CCN(C)CC4)cc3C2)c(O)cc1O [AT13387] | 191% | 0.7978 | 289397 Counts per second | 303901 Counts per second | 309451 Counts per second | 302902 Counts per second |  |  |  |  | 
19 | CC(C)(C)c1ccc(C(=O)CCCN2CCC(OC(c3ccccc3)c3ccccc3)CC2)cc1 [Ebastine] |  |  | 323732 Counts per second | 326603 Counts per second | 324560 Counts per second |  |  |  |  |  | 0.793%
20 | Cc1ccnc2c1NC(=O)c1cccnc1N2C1CC1 [Nevirapine] | 187% | 0.9932 | 371882 Counts per second | 373316 Counts per second | 379254 Counts per second |  |  |  |  |  | 
21 | C[C@H](CCC(=O)O)[C@H]1CC[C@H]2[C@@H]3CC[C@@H]4C[C@H](O)CC[C@]4(C)[C@H]3CC[C@]12C [Lithocholic Acid] | 205% | 0.9342 | 350340 Counts per second | 353302 Counts per second | 350189 Counts per second |  |  |  |  |  | 
22 | Cc1cnc(NC(=O)C2=C(O)c3ccccc3S(=O)(=O)N2C)s1 [Meloxicam (Mobic), Meloxicam] | 178% | 0.824 | 308460 Counts per second | 312953 Counts per second | 309204 Counts per second |  |  |  |  |  | 
23 | Cc1[nH]cnc1CN1CCc2c(c3ccccc3n2C)C1=O [Alosetron Hydrochloride] | 177% | 0.8898 | 328498 Counts per second | 339698 Counts per second | 337783 Counts per second | 338671 Counts per second |  |  |  |  | 
